Assay results reported in patent publication US20240116985A1, “STAPLED PEPTIDES AND METHODS THEREOF” (priority 2020, published 2024).
≈ marks a conversion by molar mass, not a printed value. Like-named read-outs stand apart in the source and are kept apart here.

Legend:
[1] = biological target: T1, full-length beta-Catenin (Uniprot ID P35222) (Homo sapiens, UniProt P35222); assay: Fluorescence polarization IC50 (beta-catenin / 5FAM-TCF4 10-53 competition); assay type: binding
T1 construct: 10 nM full-length beta-Catenin (Uniprot ID P35222)
T1 sequence (P35222 1-781): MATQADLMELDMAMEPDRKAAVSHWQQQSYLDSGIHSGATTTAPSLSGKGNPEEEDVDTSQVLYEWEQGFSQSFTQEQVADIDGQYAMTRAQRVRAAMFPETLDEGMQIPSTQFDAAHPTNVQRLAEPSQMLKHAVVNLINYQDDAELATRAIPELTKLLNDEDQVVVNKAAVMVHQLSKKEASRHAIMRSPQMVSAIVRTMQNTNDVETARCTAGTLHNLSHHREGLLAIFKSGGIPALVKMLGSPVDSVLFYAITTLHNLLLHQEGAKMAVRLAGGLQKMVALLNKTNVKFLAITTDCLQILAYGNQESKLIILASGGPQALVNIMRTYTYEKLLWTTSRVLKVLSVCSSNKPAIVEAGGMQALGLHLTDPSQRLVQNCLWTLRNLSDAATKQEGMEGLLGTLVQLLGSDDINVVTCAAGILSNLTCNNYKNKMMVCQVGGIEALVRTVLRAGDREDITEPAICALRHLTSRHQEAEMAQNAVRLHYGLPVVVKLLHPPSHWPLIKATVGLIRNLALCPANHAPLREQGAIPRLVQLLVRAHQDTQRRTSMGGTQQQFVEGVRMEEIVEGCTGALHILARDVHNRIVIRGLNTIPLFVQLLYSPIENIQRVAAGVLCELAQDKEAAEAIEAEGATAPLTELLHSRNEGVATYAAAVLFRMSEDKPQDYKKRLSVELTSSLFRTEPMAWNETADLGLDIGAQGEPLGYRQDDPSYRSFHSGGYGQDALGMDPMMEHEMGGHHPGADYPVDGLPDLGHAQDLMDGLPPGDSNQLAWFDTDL

CHI Log D procedure = assay type: physicochemical; conditions: for chromatographic logD: pH 7.4, CHI Log D; for CHI Log D: pH 7.4
Solubility in PBS = assay type: physicochemical
How it was run: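 The PBS solution was ultracentrifuged and the supernatant analyzed by HPLC. Its peak area was divided by that of a 50 μM peptide DMSO reference injection and multiplied by 50 uM to give solubility.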

[2] = fluorescence polarization, beta-catenin, read-out: FP EC50
[3] = fluorescence polarization, read-out: beta-Catenin FP IC50

Row | IC50 ([1]; read-out: beta-Catenin FP IC50) | chromatographic logD (CHI Log D procedure) | Solubility (Solubility in PBS) | CHI Log D (CHI Log D procedure) | IC50 [1, 3] | IC50 ([1]; read-out: FP EC50) | Structure (SMILES) | also measured
1 | 0.154 µM | 3.42 | 10 µM (≈ 19.9 µg/mL) |  |  |  | CC(=O)N1CCC[C@]12CC=CCCCC1(CCCC=CCCCCCC[C@@](C)(C(=O)N[C@@H](Cc3ccccc3Cl)C(=O)N[C@@H](Cc3csc4ccccc34)C(=O)N[C@@H](CCO)C(N)=O)NC(=O)[C@H](CC(C)C)NC(=O)[C@H](Cc3ccccc3)NC(=O)[C@H](C)NC(=O)[C@H](C)NC(=O)[C@H](CN(CC(=O)O)CC(F)(F)F)NC(=O)[C@H](CC(=O)O)NC1=O)NC(=O)[C@H](CC(C)(C)C)NC(=O)[C@H](CC(=O)O)NC2=O (stereo partly drawn) [I-997, Ac-PL3-Asp-Npg-B5-Asp-TfeGA-Ala-Ala-Phe-Leu-S8-2C1F-BztA-Hse-NH2] | 
2 | 0.19 µM |  | 16 µM (≈ 31.8 µg/mL) | 1.853 |  |  | CC(=O)N1CCC[C@]12CC=CCCCC1(CCCC=CCCCOC(=O)N3CC[C@@](C(=O)N[C@@H](Cc4ccsc4)C(=O)N[C@@H](Cc4csc5ccccc45)C(=O)N[C@@H](CO)C(N)=O)(C3)NC(=O)[C@H](Cc3ccccc3)NC(=O)[C@H](Cc3ccccc3)NC(=O)[C@H](C)NC(=O)[C@H](C)NC(=O)[C@H](Cc3cccc(C(=O)O)c3)NC(=O)[C@H](CC(=O)O)NC1=O)NC(=O)[C@H](CC(C)(C)C)NC(=O)[C@H](CC(=O)O)NC2=O (stereo partly drawn) [I-982, Ac-PL3-Asp-Npg-B5-Asp-3COOHF-Ala-Ala-Phe-Phe-PyrS2-3Thi-BztA-Ser-NH2] | IC50 [1, 2]: 0.19 µM
3 |  | 2.1 |  |  | 0.176 µM |  | CC(=O)N1CCC[C@]12CC=CCCCC1(CCCC=CCCCCCC[C@@](C)(C(=O)N[C@@H](Cc3ccccc3)C(=O)N[C@@H](Cc3csc4ccccc34)C(=O)NC(Cc3cncn3C)C(N)=O)NC(=O)[C@H](CC(N)=O)NC(=O)[C@H](Cc3ccccc3)NC(=O)[C@H](C)NC(=O)[C@H](C)NC(=O)[C@H](CCC(=O)O)NC(=O)[C@H](CC(=O)O)NC1=O)NC(=O)[C@H](C)NC(=O)[C@H](CC(=O)O)NC2=O (single isomer, unassigned) [I-480, Ac-PL3-Asp-Ala-B5-Asp-Glu-Ala-Ala-Phe-Asn-S8-Phe-BztA-3MeH-NH2] | solubility at 15 min (Solubility in PBS; Solubility (uM)): 36 µM (≈ 66.6 µg/mL)
4 | 1.46 µM |  | 47 µM (≈ 97 µg/mL) | 2.04 |  |  | CC(=O)N1CCC[C@]12CC=CCCCC1(CCCC=CCCCOC(=O)N3CC[C@@](C(=O)N[C@@H](Cc4ccsc4)C(=O)N[C@@H](Cc4csc5ccccc45)C(=O)N[C@@H](Cc4ccc(O)cc4)C(N)=O)(C3)NC(=O)[C@H](CC(N)=O)NC(=O)[C@H](Cc3ccccc3)NC(=O)[C@H](C)NC(=O)[C@H](C)NC(=O)[C@H](CN(CC(=O)O)CC(F)(F)F)NC(=O)[C@H](CC(=O)O)NC1=O)NC(=O)[C@H](CC(C)(C)C)NC(=O)[C@H](CC(=O)O)NC2=O (stereo partly drawn) [I-953, Ac-PL3-Asp-Npg-B5-Asp-TfeGA-Ala-Ala-Phe-Asn-PyrS2-3Thi-BztA-Tyr-NH2] | IC50 [1, 2]: 1.46 µM
5 |  |  | 47 µM (≈ 85.3 µg/mL) | 2.079 | 0.192 µM | 0.192 µM | CC(=O)N1CCC[C@]12CC=CCCCC1(CCCC=CCCCCCC[C@@](C)(C(=O)N[C@@H](Cc3ccccc3)C(=O)N[C@@H](Cc3csc4ccccc34)C(=O)N[C@H](C(N)=O)[C@@H](C)O)NC(=O)[C@H](CCC(N)=O)NC(=O)[C@H](Cc3ccccc3)NC(=O)[C@H](C)NC(=O)[C@H](C)NC(=O)[C@H](CCC(=O)O)NC(=O)[C@H](CC(=O)O)NC1=O)NC(=O)[C@H](C)NC(=O)[C@H](CC(=O)O)NC2=O (stereo partly drawn) [I-507, Ac-PL3-Asp-Ala-B5-Asp-Glu-Ala-Ala-Phe-Gln-S8-Phe-BztA-Thr-NH2] | 
6 |  | 2.45 |  |  |  | 8.14 µM | CC(=O)N1CCC[C@]12CC=CCCCC1(CCCC=CCCCOC(=O)N3CC[C@@](C(=O)N[C@@H](Cc4ccsc4)C(=O)N[C@@H](Cc4csc5ccccc45)C(=O)N[C@@H](Cc4c[nH]cn4)C(N)=O)(C3)NC(=O)[C@H](CC(N)=O)NC(=O)[C@H](CC(=O)O)NC(=O)[C@H](C)NC(=O)[C@H](C)NC(=O)[C@H](CC(=O)O)NC(=O)[C@H](CC(=O)O)NC1=O)NC(=O)[C@H](CC(C)(C)C)NC(=O)[C@H](Cc1ccccc1)NC2=O (stereo partly drawn) [I-796, Ac-PL3-Phe-Npg-B5-Asp-Asp-Ala-Ala-Asp-Asn-PyrS2-3Thi-BztA-His-NH2] | Solubility (Solubility in PBS; Solubility (uM)): 35 µM (≈ 67.5 µg/mL)
7 | 0.028 µM | 2.33 |  |  |  |  | CC(=O)N1CCC[C@]12CC=CCCCC1(CCCC=CCCCOC(=O)N3CC[C@@](C(=O)N[C@@H](Cc4ccsc4)C(=O)N[C@@H](Cc4csc5ccccc45)C(=O)N[C@@H](CCC(N)=O)C(=O)N[C@@H](CCCCNC(=O)c4cccc5ccccc45)C(N)=O)(C3)NC(=O)[C@H](CC(N)=O)NC(=O)[C@H](Cc3ccccc3)NC(=O)[C@H](C)NC(=O)[C@H](C)NC(=O)[C@H](CC(=O)O)NC(=O)[C@H](CC(=O)O)NC1=O)NC(=O)[C@H](CC(C)(C)C)NC(=O)[C@H](CC(=O)O)NC2=O (stereo partly drawn) [I-916, Ac-PL3-Asp-Npg-B5-Asp-Asp-Ala-Ala-Phe-Asn-PyrS2-3Thi-BztA-Gln-[1Napc]Lys-NH2] | Solubility (Solubility in PBS; Solubility (uM)): 45 µM (≈ 99 µg/mL)
8 |  | 2.18 |  |  |  |  | CC(=O)N1CCC[C@]12CC=CCCCC1(CCCC=CCCCCCC[C@@](C)(C(=O)N[C@@H](Cc3ccccc3)C(=O)N[C@@H](Cc3csc4ccccc34)C(=O)N[C@@H](CCC(N)=O)C(N)=O)NC(=O)[C@H](C)NC(=O)[C@H](Cc3ccc4ccccc4c3)NC(=O)[C@H](C)NC(=O)[C@H](C)NC(=O)[C@H](CC(=O)O)NC(=O)[C@H](CC(=O)O)NC1=O)NC(=O)[C@H](C)NC(=O)[C@H](CC(=O)O)NC2=O (stereo partly drawn) [I-370, Ac-PL3-Asp-Ala-B5-Asp-Asp-Ala-Ala-2NapA-Ala-S8-Phe-BztA-Gln-NH2] | IC50 ([1]; Table E2-1, read-out: beta-Catenin FP IC50): 1.56 µM; Solubility (Solubility in PBS; Solubility (uM)): 47 µM (≈ 85.5 µg/mL)
9 |  |  | 46 µM (≈ 88.6 µg/mL) | 2.721 | 0.233 µM | 0.233 µM | CC[C@H](C)[C@@H]1NC(=O)[C@H](CC(=O)O)NC(=O)[C@]2(CC=CCCCC3(CCCC=CCCCCCC[C@@](C)(C(=O)N[C@@H](Cc4ccccc4)C(=O)N[C@@H](Cc4csc5ccccc45)C(=O)N[C@@H](CCC(N)=O)C(N)=O)NC(=O)[C@H](CCC(N)=O)NC(=O)[C@H](Cc4ccccc4)NC(=O)[C@H](C)NC(=O)[C@H](CC(C)C)NC(=O)[C@H](CCC(=O)O)NC(=O)[C@H](CC(=O)O)NC3=O)NC1=O)CCCN2C(C)=O (stereo partly drawn) [I-648, Ac-PL3-Asp-Ile-B5-Asp-Glu-Leu-Ala-Phe-Gln-S8-Phe-BztA-Gln-NH2] | 
10 |  |  | 45 µM (≈ 88.2 µg/mL) | 2.718 | 0.137 µM | 0.137 µM | CC[C@H](C)[C@@H]1NC(=O)[C@H](CC(=O)O)NC(=O)[C@]2(CC=CCCCC3(CCCC=CCCCCCC[C@@](C)(C(=O)N[C@@H](Cc4ccccc4)C(=O)N[C@@H](Cc4csc5ccccc45)C(=O)N[C@@H](CCC(N)=O)C(N)=O)NC(=O)[C@H](CCC(N)=O)NC(=O)[C@H](Cc4ccccc4)NC(=O)[C@H](C)NC(=O)[C@H](Cc4ccccc4)NC(=O)[C@H](CCC(=O)O)NC(=O)[C@H](CC(=O)O)NC3=O)NC1=O)CCCN2C(C)=O (stereo partly drawn) [I-650, Ac-PL3-Asp-Ile-B5-Asp-Glu-Phe-Ala-Phe-Gln-S8-Phe-BztA-Gln-NH2] | 
11 |  | 2.16 | 50 µM (≈ 95.3 µg/mL) |  | 0.056 µM |  | CC(=O)N1CCC[C@]12CC=CCCCC1(CCCC=CCCCCCC[C@@](C)(C(=O)N[C@@H](Cc3ccccc3Br)C(=O)N[C@@H](Cc3csc4ccccc34)C(=O)N[C@@H](CCC(N)=O)C(N)=O)NC(=O)[C@H](CC(N)=O)NC(=O)[C@H](Cc3ccccc3)NC(=O)[C@H](C)NC(=O)[C@H](C)NC(=O)[C@H](CCC(=O)O)NC(=O)[C@H](CC(=O)O)NC1=O)NC(=O)[C@H](C)NC(=O)[C@H](CC(=O)O)NC2=O (stereo partly drawn) [I-436, Ac-PL3-Asp-Ala-B5-Asp-Glu-Ala-Ala-Phe-Asn-S8-2BrF-BztA-Gln-NH2] | 

Row | Structure (SMILES) | IC50 ([1]; read-out: beta-Catenin FP IC50) | chromatographic logD (CHI Log D procedure) | Solubility (Solubility in PBS) | CHI Log D (CHI Log D procedure) | IC50 [1, 3] | IC50 ([1]; read-out: FP EC50) | also measured
12 | C[C@@H]1NC(=O)[C@H](C)NC(=O)[C@H](CN(CC(=O)O)CC(F)(F)F)NC(=O)[C@H](Cc2ccsc2)NC(=O)C2(CCCC=CCCCOC(=O)N3CC[C@@](C(=O)N[C@@H](CC(=O)O)C(=O)N[C@@H](Cc4csc5ccccc45)C(=O)N[C@@H](CCC(N)=O)C(N)=O)(C3)NC(=O)[C@H](CC(N)=O)NC(=O)[C@H](Cc3ccccc3)NC1=O)CCCC=CC[C@]1(CCCN1C(=O)CN=[N+]=[N-])C(=O)N[C@@H](CC(=O)O)C(=O)N[C@@H](CC(C)(C)C)C(=O)N2 (stereo partly drawn) [I-1057, AzAc-PL3-Asp-Npg-B5-3Thi-TfeGA-Ala-Ala-Phe-Asn-PyrS2-Asp-BztA-Gln-NH2] |  |  | 50 µM (≈ 104 µg/mL) | 1.92 |  |  | IC50 ([1]; read-out: FP EC50, fluorescence polarization, beta-catenin): 6.64 µM
